Values quoted from earlier work as cited in patent publication US11020355B2, “Method of encapsulating cannabinoids in phospholipid carriers” (NuVessl, Inc., priority 2018, dated 2021).
Read-outs that look alike come from different tables or passages of the source.

Legend:
[1] = oral administration
[2] = parameters: AUC (0-10.5 hours): unit not given beside the values; details: oromucosal, historic data

C=C(C)[C@@H]1CCC(C)=C[C@H]1c1c(O)cc(CCCCC)cc1O [CBD, cannabidiol]
bioavailability [1]: 6%-15%
C max ([2]; 10 mg CBD): 3.0 microgram per liter (nanogram per mL)
C max ([2]; 15 mg CBD): 3.7 microgram per liter (nanogram per mL)
AUC (0-10.5 hours) ([2]; 5-15 mg CBD): 4.1-12.6
Tmax ([2]; 5-15 mg CBD): 3.6 to 4.5 h
